Data reported in US6562606B1, “Methods and compositions for disrupting the epithelial barrier function” (The Regents of the University of California, priority 1993, dated 2003).
Structures can show the parent of a compound that is named as a salt. Where two headings read alike, the source gives them in different places.

Tests used:
intact pig skin = assay: TEWL of intact pig skin under occlusion (Hilltop chamber), testosterone formulations; type: in vivo; details: for barrier integrity / barrier permeability (TEWL) vs occlusion and TS controls, in words: Tables 9-11; for 6 h Post TEWL (x baseline): 6 h after removal of formulation
hairless mouse = assay: TEWL recovery after oleic acid treatment; type: in vivo; details: 30 μl of 1.5% fluindostatin or 0.25% TOFA in propylene glycol/ethanol 7:3, two hours after 5% oleic acid (FIG. 6A, 6B)
Experimental: A female hairless mouse, aged 8 weeks, was treated with oleic acid. After oleic acid treatment, fluindostatin and/or 5-tetradecyloxy-2-furancarboxylic acid (TOFA) was applied to the animal.
TEWL (trans-epidermal water loss) was measured before and after treatment at convenient time intervals when the animal was alert. An Evaporimeter (ServoMed) was used.
First, TEWL of the left (LHS) and right (RHS) dorsal sides was measured. Then, the animal was anesthetized by 0.25 ml chloral hydrate (CH) IP injection. At t=0, an aliquot of 30 μl oleic acid solution (5% in propylene glycol/ethanol 7:3 (v/v)) was applied directly to both sides of the animal (˜1.5×3 cm) using a Hamilton syringe. […] TEWL was measured thereafter every 2 or 3 hours.

hairless mice [1] = assay: TEWL (water permeability) 4 hours after application to acetone-treated skin; type: in vivo; details: for stratum corneum water permeability (TEWL), increase vs vehicle in words: statistical significance vs vehicle, concentrations and skin treatment as in Tables 2-7
hairless mice [2] = assay: Epidermal barrier disruption: marker (propylene glycol, cyclophenol) profile in stratum corneum by IR and tape-stripping; type: in vivo
Experimental: To determine the epidermal barrier disruption by application of fluindostatin, an animal testing was conducted in the manner as follows: Hairless mice (two animals, B and C) were topically pretreated with fluindostatin for 7 days. In a control group, animals (two) were only treated with a vehicle. […] The parameters for the vehicle in all of the experiments herein are as follows: […] N=14. After treatment, the skin surface was cleaned and stratum corneum allowed to recover to its normal state of hydration for 2 hours. An IR spectrum of the hydrophilic marker compound, propylene glycol, was recorded, and a single tape-stripping was conducted at the treated skin site. Another spectrum was recorded followed by the removal of a. second tape strip. The same sequence was repeated 10 times. FIGS. 4A, 4B show the test results. […] In essentially the same manner, cyclophenol (CP) was used as a.lipophilic marker. Tape-stripping was repeated 7 times after application of fluindostatin.

[3] = Transdermal LHRH delivery: plasma level by radioimmunoassay, ratio to vehicle; details: ratio of LHRH plasma levels (RIA) after tested delivery compound(s) to vehicle; acid lipase vs its vehicle MES
[4] = topical; literature (J. Clin. Invest. 88, 1991); cited from earlier work
[5] = solitary agent, Conc 0.5 %, acetone-treated skin
[6] = solitary agent, Conc 1.0 %, acetone-treated skin
[7] = statistical significance vs vehicle, concentrations and skin treatment as in Tables 2-7
[8] = lidocaine, solitary enhancer Conc 0.5 %, acetone-treated skin

In the case of `CCCCCCCC/C=C\CCCCCCCC(=O)O[C@H]1CC[C@@]2(C)C(=CC[C@H]3[C@@H]4CC[C@H]([C@H](C)CCCC(C)C)[C@@]4(C)CC[C@@H]32)C1` [CHO, Cholesterol Oleate], the “24 h TEWL (x baseline)” value (intact pig skin; Table 9, 0.05 weight %, 24 h) is reported as 1.53 x baseline, the “48 h TEWL (x baseline)” value (intact pig skin; Table 9, 0.05 weight %) is reported as 2.16 x baseline and the “72 h TEWL (x baseline)” value (intact pig skin; Table 9, 0.05 weight %) is reported as 2.71 x baseline. The “barrier integrity / barrier permeability (TEWL) vs occlusion and TS controls, in words” value (intact pig skin; intact pig skin) was “comparable to or superior to both controls”.

For `CCN(CC)CCCC(C)Nc1ccnc2cc(Cl)ccc12` (stereo not shown) [CQ, Chloroquine], the “barrier integrity / barrier permeability (TEWL) vs occlusion and TS controls, in words” value (intact pig skin; intact pig skin) was “increase barrier permeability to TS to a degree significantly superior to that provided by either control at all time points”.

In the case of `CC(C)n1c(/C=C/C(O)CC(O)CC(=O)O)c(-c2ccc(F)cc2)c2ccccc21` (stereo not shown) [Fluindostatin], the “recovery of the barrier (TEWL) after oleic acid disruption” value (hairless mouse) is reported as “delay the recovery of the barrier”, the “TEWL (T = 4 hours)” value (hairless mice [1]; 4 h) is reported as 431 ± 46 and the “stratum corneum water permeability (TEWL), increase vs vehicle in words” value (hairless mice [1]) is reported as “significantly increased it”. The “disruption of the stratum corneum barrier (both marker data sets)” value (hairless mice [2]; PG and CP markers) was “caused significant disruption of the stratum corneum barrier”, the “cyclophenol (lipophilic marker) concentration profile in stratum corneum” value (hairless mice [2]; tape-stripping repeated 7 times, vs vehicle control (FIG. 5A, 5B)) was “a lower, constant concentration level of CP” and the “propylene glycol (hydrophilic marker) concentration profile in stratum corneum” value (hairless mice [2]; topical pretreatment 7 days, IR spectra over 10 tape-strippings, vs vehicle control (FIG. 4A, 4B)) was “lower absolute levels of PG in the stratum corneum, and a constant concentration level of PG”.

For `CC[C@H](C)C(=O)O[C@H]1CCC=C2C=C[C@H](C)[C@H](CC[C@@H]3C[C@@H](O)CC(=O)O3)[C@H]21` [MEV, Mevastatin], the “24 h TEWL (x baseline)” value (intact pig skin; Table 9, 0.08 weight %, 24 h after first administration) was 1.75 x baseline, the “48 h TEWL (x baseline)” value (intact pig skin; Table 9, 0.08 weight %) was 2.39 x baseline and the “72 h TEWL (x baseline)” value (intact pig skin; Table 9, 0.08 weight %) was 3.72 x baseline. For the same molecule, the “24 h TEWL (x baseline)” value (intact pig skin; Table 9, 0.12 weight %, 24 h) was 1.79 x baseline, the “48 h TEWL (x baseline)” value (intact pig skin; Table 9, 0.12 weight %) was 2.75 x baseline and the “72 h TEWL (x baseline)” value (intact pig skin; Table 9, 0.12 weight %) was 3.72 x baseline. The “6 h Post TEWL (x baseline)” value (intact pig skin; Table 10, 0.006 weight %) was 1.24 ± 0.29 x baseline, the “24 h TEWL (x baseline)” value (intact pig skin; Table 10, 0.006 weight %, 24 h) was 1.55 ± 0.29 x baseline and the “48 h TEWL (x baseline)” value (intact pig skin; Table 10, 0.006 weight %) was 2.13 ± 0.38 x baseline. The “72 h TEWL (x baseline)” value (intact pig skin; Table 10, 0.006 weight %) was 1.75 ± 0.21 x baseline, the “6 h Post TEWL (x baseline)” value (intact pig skin; Table 10, 0.10 weight %) was 2.25 ± 0.8 x baseline and the “24 h TEWL (x baseline)” value (intact pig skin; Table 10, 0.10 weight %, 24 h) was 1.93 ± 0.58 x baseline. The “48 h TEWL (x baseline)” value (intact pig skin; Table 10, 0.10 weight %) was 3.77 ± 1.42 x baseline, the “72 h TEWL (x baseline)” value (intact pig skin; Table 10, 0.10 weight %) was 3.04 ± 0.86 x baseline and the “6 h Post TEWL (x baseline)” value (intact pig skin; Table 10, 0.25 weight %) was 1.90 ± 0.28 x baseline. The “24 h TEWL (x baseline)” value (intact pig skin; Table 10, 0.25 weight %, 24 h) was 1.47 ± 0.18 x baseline, the “48 h TEWL (x baseline)” value (intact pig skin; Table 10, 0.25 weight %) was 2.66 ± 1.00 x baseline and the “72 h TEWL (x baseline)” value (intact pig skin; Table 10, 0.25 weight %) was 2.43 ± 0.51 x baseline. For the same molecule, the “barrier integrity / barrier permeability (TEWL) vs occlusion and TS controls, in words” value (intact pig skin; intact pig skin) was “decreased barrier integrity to a substantial degree over that provided by either control” and the “capacity to deliver testosterone (TS) vs both controls, in words” value (intact pig skin; intact pig skin, said to be shown in Table 11) was “superior capacity of MEV to deliver testosterone (TS) over that of both controls”.

For `CCCCCCCC/C=C\CCCCCCCC(=O)NCCO` [N-oleoylethanolamine, N-Oleoylethanolamine], the “TEWL (T = 4 hours)” value (hairless mice [1]; [5]) was 720 ± 229, the “stratum corneum water permeability (TEWL), increase vs vehicle in words” value (hairless mice [1]) was “very significantly increased water permeability” and the “24 h TEWL (x baseline)” value (intact pig skin; Table 9, 0.03 weight %, 24 h) was 1.46 x baseline. The “48 h TEWL (x baseline)” value (intact pig skin; Table 9, 0.03 weight %) was 2.25 x baseline, the “72 h TEWL (x baseline)” value (intact pig skin; Table 9, 0.03 weight %) was 3.15 x baseline and the “24 h TEWL (x baseline)” value (intact pig skin; Table 9, 0.10 weight %, 24 h) was 1.67 x baseline. For the same molecule, the “48 h TEWL (x baseline)” value (intact pig skin; Table 9, 0.10 weight %) was 2.45 x baseline, the “72 h TEWL (x baseline)” value (intact pig skin; Table 9, 0.10 weight %) was 3.68 x baseline and the “barrier integrity / barrier permeability (TEWL) vs occlusion and TS controls, in words” value (intact pig skin; intact pig skin) was “increases barrier permeability in a dose response manner”.

In the case of `CCCCCCCCCCCCCCOc1ccc(C(=O)O)o1` [TOFA, 5-tetradecyloxy-2-furancarboxylic acid], the “recovery of the barrier (TEWL) after oleic acid disruption” value (hairless mouse) is reported as “delay the recovery of the barrier”, the “TEWL (T = 4 hours)” value (hairless mice [1]; [6]) is reported as 520 ± 31 and the “stratum corneum water permeability (TEWL), increase vs vehicle in words” value (hairless mice [1]) is reported as “very significantly increased water permeability”.

With `CC(C)CCC[C@@H](C)[C@H]1CC[C@H]2[C@@H]3CC=C4C[C@@H](OS(=O)(=O)O)CC[C@]4(C)[C@H]3CC[C@]12C` [cholesterol sulfate, Cholesterol sulfate] the “lidocaine delivery, increase vs vehicle in words” value (shortened to “lidocaine delivery, increase”) [7] was “statistically very significant increase in lidocaine delivery”, the “TEWL (T = 4 hours)” value (hairless mice [1]; [6]) was 508 ± 169 and the “stratum corneum water permeability (TEWL), increase vs vehicle in words” value (hairless mice [1]) was “significantly increased it”.

With `O[C@H]1[C@H](O)[C@@H](O)[C@@H]2O[C@@H]2[C@@H]1O` [conduritol-β-epoxide, Conduritol-β-epoxide] the “water permeability (TEWL), increase vs vehicle in words” value (hairless mice [1]; frequently applied to intact skin) was “statistically significant increased lidocaine delivery and water permeability”, the “TEWL (T = 4 hours)” value (hairless mice [1]; solitary agent, Conc 4.0 %, intact skin, TID, total 7-8 doses) was 184 ± 39 and the “TEWL (T = 4 hours)” value (hairless mice [1]; solitary agent, Conc 4.0 %, single application, acetone-treated skin) was 253 ± 33. For the same molecule, the “stratum corneum water permeability (TEWL), increase vs vehicle in words” value (hairless mice [1]) was “failing even nearly significantly to increase either water permeability or lidocaine delivery”.

For `CCCC[C@@H](C)[C@@H](OC(=O)C[C@@H](CC(=O)O)C(=O)O)[C@H](C[C@@H](C)C[C@H](O)CCCC[C@@H](O)C[C@H](O)[C@H](C)N)OC(=O)C[C@@H](CC(=O)O)C(=O)O` [fumonisin B1, Fumonisin B1], the “Plasma Conc. (% dose/ml plasma)” value [8] was 0.24 ± 0.03 % dose/ml plasma, the “Total Body Conc. (%)” value [8] was 14.58 ± 0.73% and the “lidocaine delivery, increase” value [7] was “very significantly increased lidocaine delivery”. The “TEWL (T = 4 hours)” value (hairless mice [1]; [5]) was 440 ± 149 and the “LHRH Delivery Ratio vs. Vehicle” value [3] was 3.8.

For `CC[C@H](C)C(=O)O[C@H]1C[C@@H](C)C=C2C=C[C@H](C)[C@H](CC[C@@H]3C[C@@H](O)CC(=O)O3)[C@H]21` [lovastatin, Lovastatin], the “recovery of barrier function, assessed as transepidermal water loss” value [4] is given as “impair the recovery of barrier function”.

For `N[C@@H](CCl)C(=O)O` [β-chloroalanine, β-Chloroalanine], the “lidocaine delivery, increase” value [7] was “significant increase”, the “TEWL (T = 4 hours)” value (hairless mice [1]; [6]) was 263 ± 35 and the “stratum corneum water permeability (TEWL), increase vs vehicle in words” value (hairless mice [1]) was “did not increase stratum corneum water permeability”. For the same molecule, the “recovery of barrier function, assessed as transepidermal water loss” value [4] was “slow barrier recovery”.

With Bromophenacylbromide the “water permeability (TEWL), increase vs vehicle in words” value (hairless mice [1]; solitary agent on intact skin) was “but not water permeability”, the “TEWL (T = 4 hours)” value (hairless mice [1]; solitary agent, Conc 0.15 %, intact skin) was 98 ± 47 and the “TEWL (T = 4 hours)” value (hairless mice [1]; solitary agent, Conc 0.2 %, acetone-treated (prepermeabilized) skin) was 690 ± 177. The “stratum corneum water permeability (TEWL), increase vs vehicle in words” value (hairless mice [1]) was “very significant increases of both lidocaine delivery and water permeability”.

In the case of Gramicidin D [GD], the “barrier integrity / barrier permeability (TEWL) vs occlusion and TS controls, in words” value (intact pig skin; intact pig skin) is reported as “increase barrier permeability to TS to a degree significantly superior to that provided by either control at all time points”.

For “N-Palmitoyl-DL-dihydroxysphingosine [N-palmitoyl-DL-hydroxysphingosine]”, the “Plasma Conc. (% dose/ml plasma)” value (mouse, in vivo) was 0.21 ± 0.03 % dose/ml plasma, the “Total Body Conc. (%)” value (mouse, in vivo) was 6.88 ± 0.69% and the “lidocaine delivery, increase” value (mouse, in vivo) was “significantly increased it”. The “TEWL (T = 4 hours)” value (hairless mice [1]; [5]) was 793 ± 124 and the “stratum corneum water permeability (TEWL), increase vs vehicle in words” value (hairless mice [1]) was “very significantly increased water permeability”.
